Measured values: US10759843B2, “Method and pharmaceutical composition for use in the treatment of cancer” (priority 2012, dated 2020)
Non-standard residues stand in square brackets, D forms with d. Residues, ends and D or L forms follow the SMILES beside them.

Legend:
cancer cell lines = experiment: PCD induction in cancer cell lines (whole panel of Table 1); format: cell-based; conditions: cancer cell lines of Table 1, Annexin V labeling
Description: (§1) We used Annexin V-FITC (BD Biosciences) for the assessment of phosphatidylserine (PS) exposure. Data analysis was carried out in a FACSCanto II (BD Biosciences) on the total cell population (10,000 cells). Data were analyzed using FlowJo software (TreeStar).

primary cancer cells = experiment: PCD induction in primary cancer cells (whole panel of Table 2); format: cell-based; conditions: primary cancer cells (Table 2)
[1] = tested on: B cells isolated from CLL patients; experiment: PCD (phosphatidylserine exposure, Annexin-V-FITC, flow cytometry) in B cells from CLL patients; format: cell-based, human
Source text: (§2) After authorized consent forms fresh blood samples will be collected from CLL patients diagnosed according to classical morphological and immunophenotypic criteria at Pitié-Salpêtrière Hospital (Service d'Hématologie Biologique). Normal B lymphocytes will be obtained from EFS (Etablisement Français du Sang). The Institutional Ethics Committee at Pitie-Salpetriere Hospital approved the present study. Mononuclear cells were purified from blood samples using a standard Ficoll-Hypaque gradient, and B cells were positively or negatively selected by magnetic beads coupled to anti-CD19 monoclonal antibody (positive selection) or to anti-CD16, CD3, and CD14 monoclonal antibodies (negative depletion) (Miltenyi Biotech). No changes were found in the cell death response of positively or negatively selected cells. Purified B-lymphocytes were cultured in complete medium (RPMI 1640 medium supplemented with 10% fetal calf serum, 2 mM L-glutamine, and 100 U/ml penicillin-streptomycin). Unless specified, reagents were from Sigma-Aldrich.
To induce cell death B-lymphocytes were cultured 1 h with the TSP-1 derived peptide 4N1K (300 μM; sequence KRFYVVMWKK, SEQ ID NO:1), the negative control peptide 4NGG (300 μM; sequence KRFYGGMWKK, SEQ ID NO:2), the newly developed peptide PKHB1 (150 μM; sequence (D)K-R-F-Y-[…]-M-W-(D)K) (formula I) or an anti-CD47 mAb (in soluble conditions or in immobilized precoated plates; 5 μg/ml; clone B6H12). Alternatively, B-cells were pre-treated for 30 min before the induction of cell death with the calcium chelator BAPTA-AM (20 μM), the caspase-inhibitor Z-VAD.fmk (50 μM).
as §1

normal B-lymphocytes = experiment: PCD (Annexin-V-FITC) in normal B-lymphocytes; format: cell-based, human
Source text: as §2, with “Sigma-Aldrich. […]” for “Sigma-Aldrich.”
(§3) We used Annexin V-FITC (BD Biosciences) for the assessment of phosphatidylserine (PS) exposure. […] Data were analyzed using FlowJo software (TreeStar).

[2] = tested on: CD19^+/CD5^− (residual B-cells); experiment: Cell death in residual B-cells of CLL patients (flow cytometry); format: cell-based, human; conditions: n=8 patients (FIG. 6C)
Description: FIG. 6A-D. FIG. 6(A) B cells isolated from CLL patients were left untreated (control) or cultured 1 h in the presence of 4N1K or the 4N1K-derivative peptide PKHB-1 at the indicated concentration. The percentage of cells that expose phosphatidylserine (measured with Annexin-V-FITC) was recorded and expressed as a plot. Data are the means of eight independent experiments. FIG. 6(B) In a similar experiment B-lymphocytes from 14 different CLL patients, including individuals with unmutated IGHV, complex karyotype and dysfunctional TP53, were left untreated (control) or cultured 1 h in the presence of 4N1K (300 μM) or the 4N1K-derivative peptide PKHB-1 (150 μM). PCD was measured by Annexin-V-FITC labelling in a flow cytometer. FIG. 6(C) Cell death was determined as described in A in 4N1K or PKHB1-treated CD19^+/CD5^− (residual B-cells) and CD19^+/CD5^+ B-lymphocytes (CLL cells) identified by flow cytometry from each CLL patient. Data are presented as the mean±s.d. (n=8 patients). FIG. 6(D) Cell death was measured by Annexin V-positive staining in 4N1K or PKHB1-treated CLL cells pre-incubated or not with the intracellular calcium chelator BAPTA-AM. Data are presented as the mean±S.D. (n=10 patients).
as §3

MEC-1 cells = experiment: Localized CLL xenograft model (MEC-1 cells subcutaneously in NSG mice); format: in vivo; conditions: 400 μg intraperitoneally three times per week
Description: 3×10^6 MEC-1 cells were injected subcutaneously into NOD scid gamma (NSG) mice (Charles River). When the tumor volume reached 0.1 cm^3, mice were injected intraperitoneally three times per week with 4NIK or PKHB1 (400 μg in 200 μl PBS). Tumor size was measured every 2-3 days with a calliper and tumor volume, calculated using the formula (length×width^2)/2, was expressed as mm^3. Alternatively, at the end of treatment mice were injected into the sinus retro-orbital with XenoLight RediJect 2-DG-750 Probe (Caliper) to visualize tumor cell glucose uptake, which reflects cell proliferation. Fluorescence was measured by In vivo imaging system FX Pro (Kodak) and pictures were analysed with the Carestream MI software.

[3] = Peptide stability in human serum, HPLC; format: in vitro ADME
Description: FIG. 8: 4N1K and PKHB1 peptides stability were evaluated in human serum at 37° C. for 6 h. The relative concentrations of the remaining soluble peptides were analyzed by HPLC, by the integration of the absorbance at 220 nm as a function of retention time.

With “KRFYGGMWKK [4NGG, negative soluble control peptide, 4N1K mutated in two amino acids, reference compound]” the “cell death / caspase-independent PCD induction (in words)” value (cancer cell lines) was “inefficient”, the “caspase-independent PCD induction (in words)” value (primary cancer cells) was “inefficient” and the “PCD induction in CLL primary cells (in words)” value ([1]; soluble peptide or mAb (FIG. 1)) was “unable to induce PCD”.
For `CSCC[C@H](NC(=O)[C@@H](NC(=O)[C@@H](NC(=O)[C@H](Cc1ccc(O)cc1)NC(=O)[C@H](Cc1ccccc1)NC(=O)[C@H](CCCNC(=N)N)NC(=O)[C@@H](N)CCCCN)C(C)C)C(C)C)C(=O)N[C@@H](Cc1c[nH]c2ccccc12)C(=O)N[C@@H](CCCCN)C(=O)N[C@H](CCCCN)C(=O)O` [PKHB1, (D)K-R-F-Y-V-V-M-W-K-(D)] (H-KRFYVVMWK[dK]-OH), the “efficiency compared with 4N1K” value ([1]; B cells isolated from CLL patients, 1 h, indicated concentrations (FIG. 6A)) was “better efficiency than the 4N1K peptide”, the “effect of pre-treatment with calcium chelator BAPTA-AM on peptide-mediated PCD” value ([1]; BAPTA-AM 20 μM before PCD induction (FIG. 5, FIG. 6D)) was “significantly decreased” and the “cell death of CD19^+/CD5^+ tumor cells” value ([1]; CD19^+/CD5^+ CLL cells, n=8 patients (FIG. 6C)) was “significantly killed”. For the same compound, the “cytotoxicity in normal B-lymphocytes” value (normal B-lymphocytes) was “not in normal B-lymphocytes”, the “cell death of residual CD19^+/CD5^− B-lymphocytes” value [2] was “resistant” and the “tumor growth compared to control mice” value (MEC-1 cells; NSG mice with MEC-1 tumors (FIG. 7)) was “reduction”. The “tumor glucose uptake (2-DG) compared to control mice” value (MEC-1 cells; NSG mice with MEC-1 tumors (FIG. 7C)) was “reduction”, the “time over which stable in human serum” value ([3]; 37° C. (FIG. 8)) was ≥ 6 h and the “degradation in human serum” value ([3]; 37° C., 6 h, HPLC 220 nm (FIG. 8)) was “not degradated”.
